# Measurements as given in US11566007B2, “Ras inhibitors” (Revolution Medicines, Inc., priority 2019, dated 2023).
# “And” between values parts separate entries of the source, which are not always exact repeats. Identical values can stand only once. Like-named read-outs stand apart in the source and are kept apart here.
# Legend:
# [1] = test system: NCI-H358 cells (K-Ras G12C); assay: Potency assay: pERK in NCI-H358 cells; format: cell-based, human; conditions: H358 KRAS G12C, read-out: pERK EC50
# Procedure, shortened: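 pERK decrease read by AlphaLISA SureFire p-ERK1/2 or In-Cell Western after 4 h compound exposure at 37 °C, 5% CO2.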
# NCI-H358 (K-Ras G12C) = assay: CellTiter-Glo cell viability assay, NCI-H358; format: cell-based, human; conditions: NCI-H358, 5-day treatment, class symbols, read-out: Additional H358 Cell Viability assay data (K-Ras G12C, IC50)
# Procedure, shortened: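 Cells seeded, compound added directly, 5-day exposure. Plates to RT ~30 min, CellTiter-Glo luminescence read. Normalized to DMSO avg (x100); 4-parameter logistic fit.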
# K-Ras G12C = K-Ras G12C (Homo sapiens (Human), UniProt P01116+P62937, G12C); assay: Ras-Raf (BRAF RBD) disruption / FRET / MOA assay, KRAS G12C; format: biochemical; conditions: KRAS G12C; Ras-Raf disruption/FRET/MOA assay; read-out: IC50* KRAS G12C FRET data
# K-Ras G12C, sequence (P01116-2 other isoform, or with tags, fused parts or gaps G12C): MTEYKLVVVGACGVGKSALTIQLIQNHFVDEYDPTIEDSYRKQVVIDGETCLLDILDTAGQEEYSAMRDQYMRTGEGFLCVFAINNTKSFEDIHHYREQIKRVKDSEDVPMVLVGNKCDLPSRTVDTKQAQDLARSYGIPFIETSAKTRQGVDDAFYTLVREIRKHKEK
# K-Ras G12C, sequence (P62937 whole entry, canonical isoform): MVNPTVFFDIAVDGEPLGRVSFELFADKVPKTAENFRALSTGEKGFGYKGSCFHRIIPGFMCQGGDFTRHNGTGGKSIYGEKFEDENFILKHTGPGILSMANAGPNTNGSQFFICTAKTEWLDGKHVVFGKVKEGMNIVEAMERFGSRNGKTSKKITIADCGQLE
# Method: (§1) The purpose of this biochemical assay is to measure the ability of test compounds to facilitate ternary complex formation between a nucleotide-loaded Ras isoform and cyclophilin A; the resulting ternary complex disrupts binding to a BRAF^RBD construct, inhibiting Ras signaling through a RAF effector.
# (§2) Compound is present in plate wells as a 10-point 3-fold dilution series starting at a final concentration of 30 μM. After incubation at 25° C. for 3 hours, a mixture of Anti-His Eu-W1024 and anti-GST allophycocyanin is then added to assay sample wells at final concentrations of 10 nM and 50 nM, respectively, and the reaction incubated for an additional 1.5 hours. […] Compounds that facilitate disruption of a Ras:RAF complex are identified as those eliciting a decrease in the TR-FRET ratio relative to DMSO control wells.
# (§3) This protocol may also be executed substituting other Ras proteins or nucleotides.
# (§4) The purpose of this biochemical assay was to measure the ability of test compounds to facilitate ternary complex formation between a nucleotide-loaded K-Ras isoform and Cyclophilin A; the resulting ternary complex disrupts binding to a BRAF^RBD construct, inhibiting K-Ras signaling through a RAF effector. Data is reported as IC50 values.
# (§5) Compound was present in plate wells as a 10-point 3-fold dilution series starting at a final concentration of 30 μM. After incubation at 25° C. for 3 hours, a mixture of Anti-His Eu-W1024 and anti-GST allophycocyanin was then added to assay sample wells at final concentrations of 10 nM and 50 nM, respectively, and the reaction incubated for an additional 1.5 hours. […] Compounds that facilitate disruption of a K-Ras:RAF complex were identified as those eliciting a decrease in the TR-FRET ratio relative to DMSO control wells.
# KRAS G12S = KRAS G12S (Homo sapiens (Human), UniProt P01116+P62937, G12S); assay: Ras-Raf (BRAF RBD) disruption / FRET / MOA assay, KRAS G12S; format: biochemical; conditions: Ras-Raf disruption/FRET/MOA assay; class symbols; read-out: KRAS G12S FRET data IC50
# KRAS G12S, sequence (P01116-2 other isoform, or with tags, fused parts or gaps G12S): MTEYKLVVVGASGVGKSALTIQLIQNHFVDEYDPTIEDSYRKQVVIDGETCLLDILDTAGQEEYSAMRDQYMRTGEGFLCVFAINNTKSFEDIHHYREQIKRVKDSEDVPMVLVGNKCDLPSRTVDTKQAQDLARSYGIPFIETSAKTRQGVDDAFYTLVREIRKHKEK
# KRAS G12S, sequence (P62937 whole entry): as the sequence (P62937 whole entry, canonical isoform) above
# Procedure, shortened: (§6)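 Compounds, top final concentration 30 μM in 10-point 3-fold series, incubated 3 hours at 25° C with nucleotide-loaded Ras, cyclophilin A and BRAF RBD.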
# KRAS G12D = KRAS G12D (Homo sapiens (Human), UniProt P01116+P62937, G12D); assay: Ras-Raf (BRAF RBD) disruption / FRET / MOA assay, KRAS G12D; format: biochemical; conditions: Ras-Raf disruption/FRET/MOA assay; class symbols; read-out: KRAS G12D FRET data IC50
# KRAS G12D, sequence (P01116-2 other isoform, or with tags, fused parts or gaps G12D): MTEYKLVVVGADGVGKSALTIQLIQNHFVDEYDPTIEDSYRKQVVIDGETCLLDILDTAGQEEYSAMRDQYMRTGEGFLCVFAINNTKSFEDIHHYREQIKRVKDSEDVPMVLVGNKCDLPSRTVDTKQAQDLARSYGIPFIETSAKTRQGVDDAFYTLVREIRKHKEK
# KRAS G12D, sequence (P62937 whole entry): as the sequence (P62937 whole entry, canonical isoform) above
# Procedure, shortened: as §6
# KRAS G12V = KRAS G12V (Homo sapiens (Human), UniProt P01116+P62937, G12V); assay: Ras-Raf (BRAF RBD) disruption / FRET / MOA assay, KRAS G12V; format: biochemical; conditions: read-out: IC50* KRAS G12V FRET data
# KRAS G12V, sequence (P01116-2 other isoform, or with tags, fused parts or gaps G12V): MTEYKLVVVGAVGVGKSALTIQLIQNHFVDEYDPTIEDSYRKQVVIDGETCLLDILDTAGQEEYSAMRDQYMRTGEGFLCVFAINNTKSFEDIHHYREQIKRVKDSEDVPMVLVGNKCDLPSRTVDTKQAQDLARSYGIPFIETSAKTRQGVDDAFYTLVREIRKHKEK
# KRAS G12V, sequence (P62937 whole entry): as the sequence (P62937 whole entry, canonical isoform) above
# Method: as §1, §2, §3, §4, §5
# KRAS WT = KRAS WT (Homo sapiens (Human), UniProt P01116+P62937); assay: Ras-Raf (BRAF RBD) disruption / FRET / MOA assay, KRAS WT; format: biochemical; conditions: read-out: IC50* KRAS WT FRET data
# KRAS WT, sequence (P01116-2 other isoform, or with tags, fused parts or gaps): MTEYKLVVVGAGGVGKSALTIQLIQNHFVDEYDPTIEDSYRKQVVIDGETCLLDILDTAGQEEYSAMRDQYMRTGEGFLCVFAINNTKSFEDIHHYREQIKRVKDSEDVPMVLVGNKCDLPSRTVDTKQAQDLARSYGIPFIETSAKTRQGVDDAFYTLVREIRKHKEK
# KRAS WT, sequence (P62937 whole entry): as the sequence (P62937 whole entry, canonical isoform) above
# Method: as §1, §2, §3, §4, §5
# KRAS G13D = KRAS G13D (Homo sapiens (Human), UniProt P01116+P62937, G13D); assay: Ras-Raf (BRAF RBD) disruption / FRET / MOA assay, KRAS G13D; format: biochemical; conditions: read-out: IC50* KRAS G13D FRET data
# KRAS G13D, sequence (P01116-2 other isoform, or with tags, fused parts or gaps G13D): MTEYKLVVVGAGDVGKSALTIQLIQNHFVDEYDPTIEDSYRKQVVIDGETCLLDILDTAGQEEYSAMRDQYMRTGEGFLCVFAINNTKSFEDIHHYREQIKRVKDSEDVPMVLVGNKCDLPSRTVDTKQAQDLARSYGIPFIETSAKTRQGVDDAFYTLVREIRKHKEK
# KRAS G13D, sequence (P62937 whole entry): as the sequence (P62937 whole entry, canonical isoform) above
# Method: as §1, §2, §3, §4, §5
# K-Ras G13C = K-Ras G13C (Homo sapiens (Human), UniProt P01116+P62937, G13C); assay: Ras-Raf (BRAF RBD) disruption / FRET / MOA assay, KRAS G13C; format: biochemical; conditions: KRAS G13C; Ras-Raf disruption/FRET/MOA assay; read-out: IC50* KRAS G13C FRET data
# K-Ras G13C, sequence (P01116-2 other isoform, or with tags, fused parts or gaps G13C): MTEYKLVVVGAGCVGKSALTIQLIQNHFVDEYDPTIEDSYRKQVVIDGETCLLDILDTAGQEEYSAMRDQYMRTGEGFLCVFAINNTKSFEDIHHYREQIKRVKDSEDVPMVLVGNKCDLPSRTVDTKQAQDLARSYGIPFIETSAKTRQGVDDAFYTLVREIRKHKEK
# K-Ras G13C, sequence (P62937 whole entry): as the sequence (P62937 whole entry, canonical isoform) above
# Method: as §1, §2, §3, §4, §5
# NRAS G12C = NRAS G12C (Homo sapiens (Human), UniProt P01111+P62937, G12C); assay: Ras-Raf (BRAF RBD) disruption / FRET / MOA assay, NRAS G12C; format: biochemical; conditions: read-out: IC50* NRAS G12C FRET data
# NRAS G12C, sequence (P01111 whole entry G12C): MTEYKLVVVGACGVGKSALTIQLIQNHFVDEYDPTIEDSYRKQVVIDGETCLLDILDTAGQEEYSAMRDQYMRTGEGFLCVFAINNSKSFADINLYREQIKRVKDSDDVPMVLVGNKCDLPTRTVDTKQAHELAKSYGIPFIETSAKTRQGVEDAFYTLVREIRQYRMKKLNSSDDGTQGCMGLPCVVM
# NRAS G12C, sequence (P62937 whole entry): as the sequence (P62937 whole entry, canonical isoform) above
# Method: as §1, §2
# This protocol may also be executed substituting other Ras proteins or nucleotides. […]
SMILES,EC50 [1],"IC50 (NCI-H358 (K-Ras G12C); Homo sapiens, NCI-H358, 120 h)",IC50 (K-Ras G12C),IC50 (KRAS G12S),IC50 (KRAS G12D),IC50 (KRAS G12V),IC50 (KRAS WT),IC50 (KRAS G13D),"EC50 ([1]; Homo sapiens, NCI-H358)",IC50 (K-Ras G13C),IC50 (NRAS G12C),IC50 (NCI-H358 (K-Ras G12C))
"CCn1c(-c2cnccc2COC)c2c3cc(ccc31)-c1cc(O)cc(c1)C[C@H](NC(=O)[C@H](C(C)C)N(C)C(=O)[C@H]1CCN(C(=O)C#CCN(C)C)C1)C(=O)N1CCC[C@H](N1)C(=O)OCC(C)(C)C2 (atropisomer, axis not shown) [Example A107]",< 5000 nM,< 10 nM,< 10 nM,100 to 1000 nM,100 to 1000 nM,100 to 1000 nM,100 to 1000 nM,100 to 1000 nM,,,,
"CCn1c(-c2cccnc2[C@H](C)OC)c2c3cc(ccc31)-c1cccc(c1)C[C@H](NC(=O)[C@H](C(C)C)N(C)C(=O)[C@H]1CCN(C(=O)/C=C/CN3CC(OC)C3)C1)C(=O)N1CCC[C@H](N1)C(=O)OCC(C)(C)C2 (atropisomer, axis not shown) [Example A204]",,,10 to 100 nM,1000 to 10000 nM,> 10000 nM,1000 to 10000 nM,1000 to 10000 nM,,< 5000 nM,1000 to 10000 nM,10 to 100 nM,
"C=CC(=O)N1CCC(C(=O)N(C)[C@H](C(=O)N[C@H]2CCC(=O)N(C)Cc3ccc4c(c3)c(c(-c3cccnc3[C@H](C)OC)n4CC)CC(C)(C)COC(=O)[C@@H]3CCCN(N3)C2=O)C(C)C)C1 (atropisomer, axis not shown) [Example A500]",,> 1000 nM,,> 10000 nM,> 10000 nM,> 10000 nM,> 10000 nM,,,> 10000 nM,> 10000 nM,
"C=CC(=O)N1CC[C@H](C(=O)N(C)[C@H](C(=O)N[C@H]2Cc3nc(cs3)-c3ccc4c(c3)c(c(-c3cc(C5=CCN(C)CC5)cnc3[C@H](C)OC)n4CC)CC(C)(C)COC(=O)[C@@H]3CCCN(N3)C2=O)C(C)C)C1 (atropisomer, axis not shown) [Example A521]",,,1000 to 10000 nM,1000 to 10000 nM,> 10000 nM,,,,< 5000 nM,,1000 to 10000 nM,
CCn1c(-c2cccnc2COC)c2c3cc(ccc31)-c1cc(O)cc(c1)C[C@H](NC(=O)[C@H](C(C)C)N(C)C(=O)[C@H]1CCN(C(=O)C#CCN3CCOCC3)C1)C(=O)N1CCC[C@H](N1)C(=O)OCC(C)(C)C2 [Example A095],,,,100 to 1000 nM,> 10000 nM,100 to 1000 nM,1000 to 10000 nM,1000 to 10000 nM,,100 to 1000 nM,,
CCn1c(-c2cccnc2COC)c2c3cc(ccc31)-c1cc(C)cc(c1)C[C@H](NC(=O)[C@H](C(C)C)N(C)C(=O)[C@H]1CCN(C(=O)C#CCN(C)C)C1)C(=O)N1CCC[C@H](N1)C(=O)OCC(C)(C)C2 [Example A157],< 5000 nM,,< 10 nM,> 10000 nM,1000 to 10000 nM,,,,,100 to 1000 nM,< 10 nM,
C=CC(=O)N1CC[C@H](C(=O)N(C)[C@H](C(=O)N[C@H]2Cc3cc(O)cc(c3)-c3ccc4c(c3)c(c(-c3ccccc3CCOC)n4CC)CC(C)(C)COC(=O)[C@]3(C)CCCN(N3)C2=O)C(C)C)C1 [Example A219],,100 to 1000 nM,1 µM to 10 µM (2×) and > 10 µM (2×),> 10000 nM,> 10000 nM,> 10000 nM,> 10000 nM,,< 5000 nM,> 10000 nM,,
CCn1c(-c2ccccc2CCOC)c2c3cc(ccc31)-c1cc(O)cc(c1)C[C@H](NC(=O)[C@H](C(C)C)N(C)C(=O)c1ccc(N(C)C(=O)/C=C/CN(C)C)cc1)C(=O)N1CCC[C@H](N1)C(=O)OCC(C)(C)C2 [Example A220],,> 1000 nM,100 to 1000 nM and 1000 to 10000 nM,> 10000 nM,1000 to 10000 nM and > 10000 nM,> 10000 nM,> 10000 nM,,< 5000 nM,100 to 1000 nM,,
CCn1c(-c2ccccc2CCOC)c2c3cc(ccc31)-c1cc(O)cc(c1)C[C@H](NC(=O)[C@H](C(C)C)N(C)C(=O)c1ccc(NC(=O)/C=C/CN(C)C)cn1)C(=O)N1CCC[C@H](N1)C(=O)OCC(C)(C)C2 [Example A224],,> 1000 nM,100 to 1000 nM and 1000 to 10000 nM,> 10000 nM,1000 to 10000 nM,1000 to 10000 nM and > 10000 nM,> 10000 nM,,< 5000 nM,10 to 100 nM and 100 to 1000 nM,,
CCn1c(-c2cccnc2[C@H](C)OC)c2c3cc(ccc31)-c1cc(O)cc(c1)C[C@H](NC(=O)[C@H](C(C)C)N(C)C(=O)[C@H]1CCN(C(=O)C#CC3(N(C)C)COC3)C1)C(=O)N1CCC[C@H](N1)C(=O)OCC(C)(C)C2 [Example A246],,< 10 nM,,100 to 1000 nM,1000 to 10000 nM,100 to 1000 nM,100 to 1000 nM,100 to 1000 nM,< 5000 nM,10 to 100 nM,,
C=CC(=O)Nc1cnc(C(=O)N(C)[C@H](C(=O)N[C@H]2Cc3cc(O)cc(c3)-c3ccc4c(c3)c(c(-c3cccnc3[C@H](C)OC)n4CC)CC(C)(C)COC(=O)[C@@H]3CCCN(N3)C2=O)C(C)C)n1C [Example A334],,,< 10 nM and 10 to 100 nM,10 to 100 nM,100 to 1000 nM,100 to 1000 nM and 10 to 100 nM,100 to 1000 nM and 10 to 100 nM,,< 5000 nM,10 to 100 nM and < 10 nM,< 10 nM and 10 to 100 nM,< 10 nM
CCn1c(-c2cccnc2[C@H](C)OC)c2c3cc(ccc31)-c1cc(O)cc(c1)C[C@H](NC(=O)[C@H](C(C)C)N(C)C(=O)[C@H]1CCN(C(=O)C#CC3(N(C)C)COC3)C1)C(=O)N1CCC[C@H](N1)C(=O)OCC(C)(C)C2 [Example A337],< 5000 nM,,< 10 nM,100 to 1000 nM,1000 to 10000 nM,,,,,,< 10 nM,< 10 nM
